Laboratory results reported in article PMC7772087 (Biosensors & Bioelectronics, 2020).

Biological target: T1, NF-κB p50 (Homo sapiens, UniProt P19838)
T1 sequence (P19838 1-968): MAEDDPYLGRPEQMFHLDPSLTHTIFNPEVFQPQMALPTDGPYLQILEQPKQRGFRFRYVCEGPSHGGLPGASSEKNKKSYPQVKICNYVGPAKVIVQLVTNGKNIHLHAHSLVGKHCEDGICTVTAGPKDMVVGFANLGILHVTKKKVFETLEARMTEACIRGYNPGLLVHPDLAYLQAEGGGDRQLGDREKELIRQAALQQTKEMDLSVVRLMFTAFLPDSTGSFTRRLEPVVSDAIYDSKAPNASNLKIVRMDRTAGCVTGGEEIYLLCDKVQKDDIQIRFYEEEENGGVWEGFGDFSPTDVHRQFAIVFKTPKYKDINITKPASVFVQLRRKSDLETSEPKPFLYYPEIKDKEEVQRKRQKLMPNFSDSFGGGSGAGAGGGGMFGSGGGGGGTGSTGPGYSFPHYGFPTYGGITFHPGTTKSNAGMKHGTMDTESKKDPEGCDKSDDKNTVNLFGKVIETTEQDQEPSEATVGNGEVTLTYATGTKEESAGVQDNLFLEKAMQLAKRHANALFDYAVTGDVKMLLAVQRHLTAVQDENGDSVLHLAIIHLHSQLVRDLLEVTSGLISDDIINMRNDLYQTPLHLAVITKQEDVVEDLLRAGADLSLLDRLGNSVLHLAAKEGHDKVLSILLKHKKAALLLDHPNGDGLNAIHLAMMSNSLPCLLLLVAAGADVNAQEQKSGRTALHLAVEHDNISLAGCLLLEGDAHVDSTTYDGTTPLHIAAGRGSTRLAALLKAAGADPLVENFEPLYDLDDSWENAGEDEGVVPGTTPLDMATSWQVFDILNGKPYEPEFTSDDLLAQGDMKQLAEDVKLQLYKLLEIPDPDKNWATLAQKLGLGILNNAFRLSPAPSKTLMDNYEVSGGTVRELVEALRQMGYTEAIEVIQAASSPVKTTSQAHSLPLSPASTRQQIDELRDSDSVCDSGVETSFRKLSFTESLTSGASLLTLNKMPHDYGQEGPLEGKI
Experiment: Electrochemiluminescence biosensor of recombinant p50 binding to dsDNA

O=C(NC1=CC(=O)[C@H]2O[C@H]2[C@H]1O)c1ccccc1O [(−)-DHMEQ]
IC50: 0.83 nM
